Test results from patent US20210139435A1, “PROSTAGLANDIN ANALOGS AND USES THEREOF” (Lifex Biolabs, Inc., priority 2019, published 2021).

Experiments:
Nurr1 = Nurr1 (Homo sapiens, UniProt P43354); experiment: Activation of Nurr1 / Nurr1's transcription function by prostaglandins (stated without method); type: cell-based
[1] = target: ligand-binding domain (LBD) of Nurr1 (Homo sapiens, UniProt P43354); experiment: Binding of prostaglandins to Nurr1-LBD (NMR titration)
Text: Cyclopentenone prostaglandin's A1/A2 are dehydrated metabolites of their precursors, the cyclopentanone prostaglandins E1/E2. In PGE1/E2, a hydroxyl group is attached to the C11 atom, which is responsible for the covalent attachment between PGA1 and Nurr1. This is evident from the electron density observed between the PGA1/A2's C11 atom (Rajan, S. et al. Nat Chem Biol 16, 876-886 (2020); U.S. patent application Ser. No. 16/334,550) and Nurr1's Cys566 sulphur, a characteristic feature of PGA1/A2 binding. […] Based on these one could conclude that both PGA1 and PGE1 can be used to design analogs, preferably using PGE1 which is better suited for chemic synthesis and modifications as it lacks the reactive C11 site, concealed by the hydroxyl group (Rajan, S. et al. Nat Chem Biol 16, 876-886 (2020)). […] One such is the misoprostol, which enhanced Nurr1's transcription function. Thus, we chose PGE1 and Misoprostol as the candidate molecules to make modification.

[2] = system: 6-OHDA Parkinson's disease model; experiment: 6-OHDA Parkinson's disease model, apomorphine induced rotational behavior, intranasal administration; type: in vivo, C57BL/6 mice; settings: apomorphine (0.5 mg/kg) induced rotation; daily intranasal 0.2 mg/ml; 6-OHDA mice
Protocol: Mice were randomly divided into […]: Control (n=4); 6-OHDA (6-hydroxydopamine)+(n=7), 6-OHDA+PGE1 (n=8); 6-OHDA+BSC15 (the compound of the present invention) (n=8); 6-OHDA+BSC19 (the compound of the present invention) (n=7).
Week 9-10 C57BL/6 mice were intranasally administered daily with 0.2 mg/ml of compounds to be tested for 3 days before 6-OHDA injection. Stereotaxic surgery was performed by injecting 7.5 μg of 6-OHDA into the left striatum (AP: +0.5 mm, ML: −2.0 mm, VD: −3.5 mm) of the mouse. Compounds to be tested, i.e., PGE1, BSC15 and BSC19 were prepared by double emulsion solvent evaporation of 1:4 molar ratio with 2-hydroxypropyl-β-cyclodextrin. After surgical recovery, the daily intranasal administration continued with a weekly assessment of apomorphine (0.5 mg/kg) induced rotational behavior. Animal care and handling were performed according to the protocol approved by Nanyang Technological University's Institutional Animal Care and Use Committee.

mouse Nurr1 full-length = target: T1, mouse Nurr1 full-length (Mus musculus, UniProt Q06219); experiment: Luciferase reporter gene assay for Nurr1 transcriptional activity in SK-N-BE2C cells; type: cell-based; settings: relative activity over control (luminescence value; 1.0)
T1 construct: pcDNA3.1 Myc/His mouse Nurr1 full-length construct; expressed in transfected cells; host or cells: SK-N-BE2C
T1 sequence (Q06219 whole entry): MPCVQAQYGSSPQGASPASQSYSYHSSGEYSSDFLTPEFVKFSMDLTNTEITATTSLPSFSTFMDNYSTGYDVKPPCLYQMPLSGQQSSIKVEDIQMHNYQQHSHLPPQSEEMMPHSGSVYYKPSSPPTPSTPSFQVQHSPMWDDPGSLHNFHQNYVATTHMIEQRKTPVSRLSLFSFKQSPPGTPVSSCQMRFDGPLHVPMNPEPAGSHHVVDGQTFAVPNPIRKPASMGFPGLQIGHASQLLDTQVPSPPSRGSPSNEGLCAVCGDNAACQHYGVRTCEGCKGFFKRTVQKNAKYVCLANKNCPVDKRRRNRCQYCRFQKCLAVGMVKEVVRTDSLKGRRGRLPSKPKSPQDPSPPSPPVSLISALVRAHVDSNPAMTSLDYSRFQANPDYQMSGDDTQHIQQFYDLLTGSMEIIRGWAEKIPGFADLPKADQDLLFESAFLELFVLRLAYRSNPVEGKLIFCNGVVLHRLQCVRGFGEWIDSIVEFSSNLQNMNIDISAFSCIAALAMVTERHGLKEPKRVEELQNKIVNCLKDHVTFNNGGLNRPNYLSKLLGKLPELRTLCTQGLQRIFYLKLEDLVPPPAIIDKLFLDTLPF
Outline: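 SK-N-BE2C cells co-transfected with mouse full-length Nurr1, firefly reporter carrying response element and Renilla control (8:1:1), then exposed to compound doses for 24 h at 37 °C. Dual-luciferase readout; firefly RLU normalized to Renilla after background subtraction, then to DMSO-treated wells.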

Nurr1, sequence (P43354 whole entry, species assumed, the tested form may be a part): as the sequence (Q06219 whole entry) above, with S131T, S134G, D354E counted along it
ligand-binding domain (LBD) of Nurr1, sequence (P43354 360-595 limits assumed): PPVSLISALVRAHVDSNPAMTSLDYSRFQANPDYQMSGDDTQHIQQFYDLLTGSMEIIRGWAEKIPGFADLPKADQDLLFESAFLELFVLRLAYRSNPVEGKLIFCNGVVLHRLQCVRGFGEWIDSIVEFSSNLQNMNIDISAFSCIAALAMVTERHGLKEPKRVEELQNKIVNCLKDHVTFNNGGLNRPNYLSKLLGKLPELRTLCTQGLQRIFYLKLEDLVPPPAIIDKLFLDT

| Structure (SMILES) | Fold activity (1 uM) (mouse Nurr1 full-length) | other results |
| --- | --- | --- |
| CCCCC(C)(O)C/C=C/[C@H]1[C@H](O)CC(=O)[C@@H]1CCCCCCC(=O)OC (stereo partly drawn) [misoprostol, Misoprostol] |  | Nurr1's transcription function (Nurr1): enhanced |
| CCCCC[C@H](O)/C=C/[C@H]1C=CC(=O)[C@@H]1C/C=C\CCCC(=O)O [PGA2] |  | activation of Nurr1 (Nurr1): activate; direct binding to the ligand-binding domain (LBD) of Nurr1 [1]: directly bind |
| CCCCC[C@H](O)/C=C/[C@H]1C=CC(=O)[C@@H]1CCCCCCC(=O)O [PGA1] |  | activation of Nurr1 (Nurr1): activate; direct binding to the ligand-binding domain (LBD) of Nurr1 [1]: directly bind; binding site on Nurr1-LBD by NMR titration [1]: interact at same binding site on Nurr1-LBD |
| CCCCC[C@H](O)/C=C/[C@H]1[C@H](O)CC(=O)[C@@H]1CCCCCCC(=O)O [PGE1, Prostaglandin E1] |  | activation of Nurr1 (Nurr1): activate; direct binding to the ligand-binding domain (LBD) of Nurr1 [1]: directly bind; binding site on Nurr1-LBD by NMR titration [1]: interact at same binding site on Nurr1-LBD; rotation number [2]: significant reduction |
| CCCCC[C@H](O)/C=C/[C@H]1[C@H](O)CC(=O)[C@@H]1C/C=C\CCCC(=O)O [PGE2, Prostaglandin E2] |  | activation of Nurr1 (Nurr1): activate; direct binding to the ligand-binding domain (LBD) of Nurr1 [1]: directly bind |
| CCCCC[C@H](O)/C=C/[C@H]1[C@H](O)CC(=O)[C@@H]1CCCCCCC(=O)Oc1ccc(NC(=O)c2ccc(F)c(F)c2)cc1 [Compound 12, 4-(3,4-difluorobenzamido)phenyl 7-((1R,2R,3R)-3-hydroxy-2-((S,E)-3-hydroxyoct-1-enyl)-5-oxocyclopentyl)heptanoate] | A (above 2.0 (high activity)) |  |
| CCCCC[C@H](O)/C=C/[C@H]1[C@H](O)CC(=O)[C@@H]1CCCCCCC(=O)Nc1ccc(NC(=O)c2ccccc2)cc1 [Compound 3, N-(4-(7-((1R,2R,3R)-3-hydroxy-2-((S,E)-3-hydroxyoct-1-en-1-yl)-5-oxocyclopentyl)heptanamido)phenyl)benzamide] | B (1.1~2.0 (moderate)) |  |
| O=C(O)CCC/C=C\CC1C(O)CC(=O)C1/C=C/C(O)CCc1ccccc1 (stereo not drawn) [Compound 65, 17-phenyl trinor Prostaglandin D2] | C (below 1.0 (low activity)) |  |
| CCCCC(C)(C)[C@@H](O)/C=C/[C@H]1[C@H](O)CC(=O)[C@@H]1CCCCCCC(=O)O [Compound 51, 16,16-dimethyl Prostaglandin E1] | A (above 2.0 (high activity)) |  |
| O=C(O)CCCCCC[C@H]1C(=O)C[C@@H](O)[C@@H]1/C=C/[C@@H](O)Cc1ccccc1 [Compound 59, 16-phenyl tetranor Prostaglandin E1] | B (1.1~2.0 (moderate)) |  |
| CCCC[C@H](C)C[C@H](O)/C=C/[C@H]1[C@H](O)CC(=O)[C@@H]1CCCC/C=C/C(=O)O [Compound 67, Limaprost] | A (above 2.0 (high activity)) |  |
| CCCCC(C)(C)[C@H](O)/C=C/[C@H]1[C@H](O)CC(=O)[C@@H]1C/C=C\CCCC(=O)O [Compound 69, 16,16-dimethyl Prostaglandin E2] | A (above 2.0 (high activity)) |  |
| CCCCC[C@H](O)/C=C/[C@H]1[C@@H](O)CC(=O)[C@@H]1CCCCCCC(=O)O [Compound 85, 11b-Prostaglandin E1] | C (below 1.0 (low activity)) |  |
| CCCCC[C@H](O)/C=C/[C@H]1[C@H](O)CC(=O)[C@@H]1CCCCCCCCC(=O)O [Compound 34, 1a,1b-dihomo Prostaglandin E1] | B (1.1~2.0 (moderate)) |  |
| CCCCC[C@H](O)/C=C/[C@H]1[C@H](O)CC(=O)[C@@H]1C/C=C/CCCC(=O)Oc1ccc(NC(C)=O)cc1 [Compound 44, Prostaglandin E2 p-acetamidophenyl ester] | A (above 2.0 (high activity)) |  |
| CCCCCC(O)/C=C/C1C(=O)CC(O)C1C/C=C\CCCC(=O)OCC(O)CO (stereo not drawn) [Compound 17, Prostaglandin D2-1-glyceryl ester] | B (1.1~2.0 (moderate)) |  |
| O=C(O)CCC/C=C\CC1C(=O)CC(O)C1/C=C/C(O)CC1CCCCC1 (stereo not drawn) [Compound 71, 8-iso-16-cyclohexyl-tetranor Prostaglandin E2] | B (1.1~2.0 (moderate)) |  |
